Laboratory results published in patent US20180256515A1, “ORAL AMPHETAMINE COMPOSITION” (Adare Pharmaceuticals, Inc., priority 2017, published 2018).
Counter-ions that a name gives are not always drawn. Like-named read-outs stand apart in the source and are kept apart here.

Assay: Water solubility (statement)

CC(N)Cc1ccccc1 (racemic) [Amphetamine sulfate, racemic amphetamine sulfate]
solubility: freely soluble
solubility (listed as Racemic amphetamine sulfate): freely water soluble
